Source: patent publication US11976083B2, “Inhibitors of peptidylarginine deiminases” (Gilead Sciences, Inc., priority 2020, dated 2024)
pIC50: −log10 of the molar value.

Target: T1, human PAD4 (Homo sapiens, UniProt Q9UM07)
T1 construct: human PAD4 (NM_012387), A2-P663, was PCR amplified; His-SUMO (N, cleaved yes); made in house; host or cells: E. coli BL21(DE3)
Test: In vitro PAD4 BAEE biochemical assay
Settings: BAEE substrate 3 mM, 5 nM PAD4, 2 mM calcium chloride; geometric mean of multiple experiments
Outline: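 Assay was run at 25 °C using 3 mM BAEE and 5 nM human PAD4 after a 30 min compound preincubation; ammonia produced over 2 h was quantified by OPA-derived fluorescence. Full inhibition was defined by 50 µM BB-Cl-Amidine, and IC50 came from variable-slope nonlinear regression.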

T1 sequence (Q9UM07 2-663): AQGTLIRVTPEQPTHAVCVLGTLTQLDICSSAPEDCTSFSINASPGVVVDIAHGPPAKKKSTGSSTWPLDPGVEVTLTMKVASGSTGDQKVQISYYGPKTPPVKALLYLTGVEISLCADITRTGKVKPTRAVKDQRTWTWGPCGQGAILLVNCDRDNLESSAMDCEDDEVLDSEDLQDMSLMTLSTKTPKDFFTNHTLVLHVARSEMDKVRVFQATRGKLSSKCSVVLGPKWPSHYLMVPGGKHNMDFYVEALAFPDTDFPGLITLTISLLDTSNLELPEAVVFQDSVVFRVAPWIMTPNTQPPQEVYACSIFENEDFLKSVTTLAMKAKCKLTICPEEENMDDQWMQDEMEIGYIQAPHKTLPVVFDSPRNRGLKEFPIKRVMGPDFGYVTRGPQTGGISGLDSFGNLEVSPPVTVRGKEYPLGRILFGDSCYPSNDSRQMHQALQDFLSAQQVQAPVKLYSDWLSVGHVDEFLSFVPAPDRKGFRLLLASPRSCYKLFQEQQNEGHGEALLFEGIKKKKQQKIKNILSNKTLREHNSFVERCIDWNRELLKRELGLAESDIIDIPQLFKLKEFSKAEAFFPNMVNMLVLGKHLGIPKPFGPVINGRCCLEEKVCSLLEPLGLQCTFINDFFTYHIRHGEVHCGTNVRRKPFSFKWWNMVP

Row | pIC50 | Compound
1 | 7.31 | COc1cc(C(=O)N2[C@H]3CC[C@@H]2[C@H](N)C3)cc2nc(-c3cc4ccc5nc4n3CCCCC[C@H](OC)C(C)(C)C(=O)N[C@@H]5C)n(C)c12 [Example 220, (7~{S),11~{R})-17-[5-[(1~{R},2~{R},4~{S})-2-amino-7-azabicyclo[2.2.1]heptane-7-carbonyl]-7-methoxy-1-methyl-benzimidazol-2-yl]-7-methoxy-8,8,11-trimethyl-1,10,19-triazatricyclo[10.5.2.0^{15,18}]nonadeca-12(19),13,15(18),16-tetraen-9-one]
2 | 7.12 | COc1cc(C(=O)N2CC[C@@H](OC)[C@@H](N)C2)cc2nc(-c3cc4ccc5nc4n3CCCCCc3nccc(Cl)c3C(=O)N[C@@H]5C)n(C)c12 [Example 831, (2~{R})-17-[5-[(3~{S}, 4~{R})-3-amino-4-methoxy-piperidine-1-carbonyl]-7-methoxy-1-methyl-benzimidazol-2-yl]-6-chloro-2-methyl-3,9,16,22-tetrazatetracyclo [14.5.2.0^{5,10}.0^{19,23}] tricosa-1(22),5(10),6,8, 17,19(23),20-heptaen-4-one]
3 | 6.82 | COc1cc(C(=O)N2CC[C@@H](OC)[C@@H](N)C2)cc2nc(-c3cc4ccc5nc4n3CCCCCCC3(CC3)C(=O)N[C@@H]5C)n(C)c12 [Example 62, (11~{R})-17-[5-[(3~{S},4~{R})-3-amino-4-methoxy-piperidine-1-carbonyl]-7-methoxy-1-methyl-benzimidazol-2-yl]-11-methyl-spiro[1,10,19-triazatricyclo[10.5.2.0^{15,18}]nonadeca-12(19),13,15(18),16-tetraene-8,1′-cyclopropane]-9-one]
4 | 7.06 | C[C@H]1NC(=O)[C@@H]2[C@@H](CCCC(F)(F)Cn3c(-c4nc5cc(C(=O)N[C@H]6CNCC[C@@H]6F)c(F)cc5n4C4CC4)cc4ccc1nc43)C2(F)F [Example 390, 1-cyclopropyl-6-fluoro-~{N}-[(3~{S},4~{S})-4-fluoro-3-piperidyl]-2-[(2~{R},5~{S},7~{R})-6,6,11,11-tetrafluoro-2-methyl-4-oxo-3,13,19-triazatetracyclo[11.5.2.0^{5,7}.0^{16,20}]icosa-1(19),14,16(20),17-tetraen-14-yl]benzimidazole-5-carboxamide]
5 | 6.28 | COc1cc(C(=O)N2CCC[C@@H](N)C2)cc2nc(-c3cc4ccc5nc4n3CCC3(CC3)COCCC(=O)N[C@@H]5C)c(C)n12 [Example 303, (11~{R})-17-[7-[(3~{R})-3-aminopiperidine-1-carbonyl]-5-methoxy-3-methyl-imidazo[1,2-a]pyridin-2-yl]-11-methyl-spiro[6-oxa-1,10,19-triazatricyclo[10.5.2.0^{15,18}]nonadeca-12(19),13,15(18),16-tetraene-4,1′-cyclopropane]-9-one]
6 | 7.23 | C[C@H]1NC(=O)CCOC[C@@H]2C[C@@H]2Cn2c(-c3nc4cc(C(=O)N[C@H]5CNCC[C@@H]5F)c(F)cc4n3C3CC3)cc3ccc1nc32 [Example 622, 1-cyclopropyl-6-fluoro-~ {N}-[(3~{S},4~{S})-4-fluoro-3-piperidyl]-2-[(3~{S},5~{R},12~{R})-12-methyl-10-oxo-7-oxa-1,11,20-triazatetracyclo[11.5.2.0^ {3,5}.0^{16,19}]icosa-13(20),14,16(19), 17-tetraen-18-yl] benzimidazole-5-carboxamide]
7 | 7.54 | [2H]C1([2H])CCCC[C@@H]2C[C@H]2C(=O)N[C@H](C)c2ccc3cc(-c4nc5cc(C(=O)N6CC[C@@H](OC)[C@@H](N)C6)cc(F)c5n4C4CC4)n1c3n2 [Example 874, (2~{R},5~{R},7~{R})-14-[5-[(3~{S},4~{R})-3-amino-4-methoxy-piperidine-1-carbonyl]-1-cyclopropyl-7-fluoro-benzimidazol-2-yl]-12,12-dideuterio-2-methyl-3,13,19-triazatetracyclo[11.5.2.0^ {5,7}.0^{16,20}]icosa-1(19), 14,16(20),17-tetraen-4-one]
8 | 6.34 | COc1cc(C(=O)N2CC[C@@H](OC)[C@@H](N)C2)cc2nc(-c3cc4ccc5nc4n3CCCC(F)(F)C[C@@H]3C[C@@H]3C(=O)N[C@@H]5C)n(C)c12 [Example 858, (2~{R},5~{S},7~{S})-14-[5-[(3~{S},4~{R})-3-amino-4-methoxy-piperidine-1-carbonyl]-7-methoxy-1-methyl-benzimidazol-2-yl]-9,9-difluoro-2-methyl-3,13,19-triazatetracyclo [11.5.2.0^{5,7}.0^{16,20}] icosa-1(19),14,16(20), 17-tetraen-4-one]
9 | 7.43 | COc1cc(C(=O)N2CC[C@@H](OC)[C@@H](N)C2)cc2nc(-c3cc4ccc5nc4n3CC(F)(F)CCC[C@@H]3C[C@H]3C(=O)N(CC3CC3)[C@@H]5C)n(C)c12 [Example 868, (2~{R},5~{R},7~{R})-14-[5-[(3~{S},4~{R})-3-amino-4-methoxy-piperidine-1-carbonyl]-7-methoxy-1-methyl-benzimidazol-2-yl]-3-(cyclopropylmethyl)-11,11-difluoro-2-methyl-3,13,19-triazatetracyclo[11.5.2.0^ {5,7}.0^{16,20}]icosa-1(19), 14,16(20),17-tetraen-4-one]
10 | 7.24 | COc1cc(C(=O)N2CC3(CCCNC3)C2)cc2nc(-c3cc4ccc5nc4n3CCCCC[C@@H]3CC3C(=O)N[C@@H]5C)n(C)c12 (some centres unmarked) [Example 508, (2~{R},7~{R})-14-[5-(2,8-diazaspiro [3.5]nonane-2-carbonyl)-7-methoxy-1-methyl-benzimidazol-2-yl]-2-methyl-3,13,19-triazatetracyclo[11.5.2.0^ {5,7}.0^{16,20}]icosa-1(19),14,16(20),17-tetraen-4-one]
11 | 6.41 | COc1cc(C(=O)N2[C@H]3CC[C@@H]2[C@H](N)C3)cc2nc(-c3cc4ccc5nc4n3CCCCCCOc3ccccc3C(=O)N[C@@H]5C)c(C)n12 [Example 213, (2~{R})-19-[7-[(1~{R},2~{R},4~{S})-2-amino-7-azabicyclo[2.2.1]heptane-7-carbonyl]-5-methoxy-3-methyl-imidazo[1,2-a]pyridin-2-yl]-2-methyl-11-oxa-3,18,24-triazatetracyclo[16.5.2.0^{5,10}.0^ {21,25}]pentacosa-1(24),5(10),6,8,19,21(25),22-heptaen-4-one]
12 | 7.21 | C[C@H]1NC(=O)c2ccc(Cl)nc2CCCCCn2c(-c3nc4cc(C(=O)N5C[C@H](N)[C@@H]6CC[C@H]5C6)cc(F)c4n3[C@H]3C[C@@H]3F)cc3ccc1nc32 [Example 840, (2~{R})-17-[5-[(1~{S), 4~{R},5~{R})-4-amino-2-azabicyclo[3.2.1]octane-2-carbonyl]-7-fluoro-1-[(1~ {S},2~{S})-2-fluorocyclopropyl]benzimidazol-2-yl]-8-chloro-2-methyl-3,9,16,22-tetrazatetracyclo[14.5.2.0^ {5,10).0^{19,23}]tricosa-1(22), 5(10),6,8,17,19(23),20-heptaen-4-one]
13 | 7.29 | COc1cc(C(=O)N2C[C@H](N)[C@@H]3CC[C@H]2C3)cc2nc(-c3cc4ccc5nc4n3CCCCCCC(C)(C)C(=O)N[C@@H]5C)c(C)n12 [Example 928, (11~{R})-17-[7-[(1~{S},4~{R}, 5~{R})-4-amino-2-azabicyclo [3.2.1]octane-2-carbonyl]-5-methoxy-3-methyl-imidazo [1,2-a]pyridin-2-yl]-8,8,11-trimethyl-1,10,19-triazatricyclo [10.5.2.0^{15,18}]nonadeca-12(19),13,15(18), 16-tetraen-9-one]
14 | 6.04 | COc1cc(C(=O)N2CCC[C@@H](N)C2)cc2nc(-c3cc4ccc5nc4n3CCOCCOCCOC5C)n(C)c12 (some centres unmarked) [Example 298, [(3~{R})-3-amino-1-piperidyl]-[7-methoxy-1-methyl-2-(11-methyl-4,7,10-trioxa-1,19-diazatricyclo[10.5.2.0^{15,18}]nonadeca-12(19),13,15(18),16-tetraen-17-yl)benzimidazol-5-yl]methanone]
15 | 7.59 | COc1cc(C(=O)N2C[C@H](N)[C@@H]3CC[C@H]2C3)cc2nc(-c3cc4ccc5nc4n3CC(F)(F)CCC[C@]3(F)C[C@H]3C(=O)N[C@@H]5C)n(C)c12 [Example 448, (2~{R},5~{S},7~{S})-14-[5-[(1~{S},4~{R},5~{R})-4-amino-2-azabicyclo[3.2.1]octane-2-carbonyl]-7-methoxy-1-methyl-benzimidazol-2-yl]-7,11,11-trifluoro-2-methyl-3,13,19-triazatetracyclo[11.5.2.0^{5,7}.0^{16,20}] icosa-1(19),14,16(20),17-tetraen-4-one]
16 | 6.39 | COc1cc(C(=O)N2C[C@H]3C[C@H]3[C@H](N)C2)cc2nc(-c3cc4ccc5nc4n3CCCCCCC(C)(C)C(=O)N[C@@H]5C)n(C)c12 [Example 543, (11~{R})-17-[5-[(1~ {S},5~{S},6~{R})-5-amino-3-azabicyclo [4.1.0]heptane-3-carbonyl]-7-methoxy-1-methyl-benzimidazol-2-yl]-8,8,11-trimethyl-1,10,19-triazatricyclo [10.5.2.0^{15,18}]nonadeca-12(19),13,15(18), 16-tetraen-9-one]
17 | 7.40 | COc1cc(C(=O)N2[C@H]3CC[C@@H]2[C@H](N)C3)cc2nc(-c3cc4ccc5nc4n3CCCCCC[C@@H](C)C(=O)N[C@@H]5C)n(C)c12 [Example 136, (8~{R},11~{R})-17-[5-[(1~{R},2~{R},4~{S})-2-amino-7-azabicyclo[2.2.1]heptane-7-carbonyl]-7-methoxy-1-methyl-benzimidazol-2-yl]-8,11-dimethyl-1,10,19-triazatricyclo[10.5.2.0^{15,18}]nonadeca-12(19),13,15(18),16-tetraen-9-one]
